This assay addresses T1, hepatitis C virus RNA dependent polymerase (NS5B) (Hepatitis C virus genotype 1b, UniProt P26663).
T1 construct: The C-terminal polyprotein cleavage product, NS5B, is the elongation subunit of the HCV replicase
Briefly: biochemical. The protocol:
Inhibition of NS5B RNA Dependent RNA Polymerase Activity
The compounds of the invention were tested for inhibitory activity against the hepatitis C virus RNA dependent polymerase (NS5B), according to the protocol described in WO 03/010141.

T1 sequence (P26663 2420-3010): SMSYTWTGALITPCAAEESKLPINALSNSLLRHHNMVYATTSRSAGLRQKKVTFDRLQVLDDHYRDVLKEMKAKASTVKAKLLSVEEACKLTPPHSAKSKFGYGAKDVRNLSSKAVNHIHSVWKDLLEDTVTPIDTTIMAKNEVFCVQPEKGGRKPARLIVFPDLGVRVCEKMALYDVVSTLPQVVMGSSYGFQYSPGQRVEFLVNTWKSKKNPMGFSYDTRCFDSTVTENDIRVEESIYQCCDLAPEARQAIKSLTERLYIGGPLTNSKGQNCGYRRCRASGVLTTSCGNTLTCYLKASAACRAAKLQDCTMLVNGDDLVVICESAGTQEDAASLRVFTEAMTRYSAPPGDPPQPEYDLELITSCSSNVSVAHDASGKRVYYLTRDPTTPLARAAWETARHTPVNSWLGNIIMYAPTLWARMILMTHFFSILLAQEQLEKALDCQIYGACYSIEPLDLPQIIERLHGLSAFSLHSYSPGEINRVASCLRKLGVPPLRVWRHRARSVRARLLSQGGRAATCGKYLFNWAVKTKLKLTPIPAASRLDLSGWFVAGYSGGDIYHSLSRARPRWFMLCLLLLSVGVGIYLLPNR

Take `Cn1c(-c2ccoc2)c(C2CCCCC2)c2cc(C(=O)NS(=O)(=O)c3ccccc3)ccc21` [compound 204]: the IC50 (usually the midpoint of a concentration-inhibition curve) lay within 1000 to 20000 nM. Next, `COc1c(C(=O)NS(=O)(=O)c2ccccc2)ccc2c(C3CCCC3)c(-c3ccoc3)n(C)c12` [compound 202]: < 1000 nM; `Cn1c(-c2ccoc2)c(C2CCCCC2)c2cc(C(=O)NS(C)(=O)=O)ccc21` [compound 203]: 1000 to 20000 nM; `COc1c(C(=O)NS(C)(=O)=O)ccc2c(C3CCCC3)c(-c3ccoc3)n(C)c12` [compound 201]: < 1000 nM.

(Values after patent publication US7098231B2, “Viral polymerase inhibitors” (Boehringer Ingelheim International GmbH, priority 2003, dated 2006).)
